Results taken from patent US5374765A, “Method for extracting an amino acid ester from a hydrous solution of a mineral acid salt thereof” (priority 1990, dated 1994).

Assay: Extraction of amino acid ester from aqueous mineral acid salt solution into 1,2-dichloroethane at constant pH (Table 1)
Protocol: 0.1 mole of a mineral acid salt of an amino acid ester, shown in Table 1 was dissolved or suspended in 30 g of water. Thereto was added 60 g of 1,2-dichloroethane. While the mixture was kept at 20°-25° C. and stirred, a 20% water solution of sodium hydroxide was dropwise added thereto in 0.5 hour, and then stirring and extraction were carried out for 0.5 hour while the pH of the aqueous layer was kept at a constant level in the range of 6.5-8.5. The organic layer was separated from the aqueous layer. Then, there were measured percent extraction of fed amino acid ester in organic layer, percent remaining of said ester in aqueous layer, and percent hydrolysis of said ester in aqueous layer (the hydrolyzed ester remains in the aqueous layer as an amino acid).

[1] = pH 6.5, 20-25 °C, 1,2-dichloroethane
[2] = pH 7.5, 20-25 °C, 1,2-dichloroethane
[3] = pH 8.5, 20-25 °C, 1,2-dichloroethane

| Compound | Ester in aqueous layer, percent hydrolysis [1] [%] | Ester in aqueous layer, percent remaining [1] [%] | Percent extraction of ester in organic layer [1] [%] | Ester in aqueous layer, percent hydrolysis [2] [%] | Ester in aqueous layer, percent remaining [2] [%] | Percent extraction of ester in organic layer [2] [%] | Ester in aqueous layer, percent hydrolysis [3] [%] | Ester in aqueous layer, percent remaining [3] [%] | Percent extraction of ester in organic layer [3] [%] | Ester in aqueous layer, percent remaining (pH 6.5) [%] | Ester in aqueous layer, percent remaining (pH 7.5) [%] | Ester in aqueous layer, percent remaining (pH 8.5) [%] | Ester in aqueous layer, percent hydrolysis (water/1,2-dichloroethane, pH 6.5) [%] | Ester in aqueous layer, percent hydrolysis (water/1,2-dichloroethane, pH 7.5) [%] | Ester in aqueous layer, percent hydrolysis (water/1,2-dichloroethane, pH 8.5) [%] |
| --- | --- | --- | --- | --- | --- | --- | --- | --- | --- | --- | --- | --- | --- | --- | --- |
| CCOC(=O)c1ccccc1N.Cl [Ethyl o-aminobenzoate hydrochloride] | 0 | 6 | 94 | 1 | 2 | 97 | 3 | 1 | 96 | – | – | – | – | – | – |
| COC(=O)[C@@H](N)CCCCN.Cl [Methyl L-lysinate hydrochloride] | 0 | 18 | 82 | 0 | 9 | 91 | 3 | 3 | 94 | – | – | – | – | – | – |
| Methyl L-aspartate hydrochloride | – | – | 88 | – | – | 96 | – | – | 96 | 12 | 3 | 1 | 0 | 1 | 3 |
| Cl.N[C@@H](Cc1ccccc1)C(=O)OCc1ccccc1 [Benzyl L-phenylalaninate hydrochloride] | 0 | 6 | 94 | 0 | 1 | 99 | – | 1 | 97 | – | – | – | – | – | – |
| COC(=O)[C@@H](N)CO.Cl [Methyl L-serinate hydrochloride] | 0 | 14 | 86 | 0 | 5 | 95 | 4 | 2 | 94 | – | – | – | – | – | – |
| Cl.N[C@@H](Cc1ccccc1)C(=O)Oc1ccccc1 [Phenyl L-phenylalaninate hydrochloride] | 0 | 6 | 94 | 2 | 1 | 97 | 7 | 1 | 92 | – | – | – | – | – | – |
| CCOC(=O)[C@@H](N)Cc1ccccc1.Cl [Ethyl L-phenylalaninate hydrochloride] | 0 | 8 | 92 | 0 | 2 | 98 | 3 | 1 | 96 | – | – | – | – | – | – |
| COC(=O)CCCN.Cl [Methyl γ-aminobutyrate hydrochloride] | 0 | 11 | 89 | 0 | 4 | 96 | 3 | 2 | 95 | – | – | – | – | – | – |
